Literature values, collected in US20130184354A1, “Silicone and Hylauronic Acid (HLA) Delivery Systems for Products by Sustainable Processes for Medical Uses Including Wound Management” (priority 2012, published 2013).

Assays:
CB2 receptors = CB2 receptors (Homo sapiens, UniProt P34972)
[1] = compared with THC

Sequence of CB2 receptors (P34972 whole entry): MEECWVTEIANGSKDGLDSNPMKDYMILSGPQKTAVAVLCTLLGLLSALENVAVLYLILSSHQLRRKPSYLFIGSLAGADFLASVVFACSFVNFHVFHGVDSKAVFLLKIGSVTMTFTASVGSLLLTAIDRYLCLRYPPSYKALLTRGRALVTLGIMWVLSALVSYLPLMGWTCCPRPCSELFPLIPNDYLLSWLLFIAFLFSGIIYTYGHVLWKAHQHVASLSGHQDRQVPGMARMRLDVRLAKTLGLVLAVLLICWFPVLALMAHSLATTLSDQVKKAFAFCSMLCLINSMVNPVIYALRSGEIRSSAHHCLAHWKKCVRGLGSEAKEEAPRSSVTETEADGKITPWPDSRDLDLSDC

SMILES | affinity for CB2 receptors (CB2 receptors) | potency relative to THC [1]
C=C(C)[C@@H]1CCC(C)=C[C@H]1c1c(O)cc(CCCCC)cc1O [Cannabidiol] | no affinity | –
CCCCCCC(C)(C)c1cc(O)c2c(c1)OC(C)(C)[C@@H]1CC=C(CO)C[C@@H]21 [HU-210] | – | about 100 times
